Reference: ChEMBL document CHEMBL4256942, “Exo Olefin-Containing Nuclear Transport Modulators and Uses Thereof” (2016)

Target: Exportin-1 (Homo sapiens, UniProt O14980)
Assay: Inhibition of CRM1 in human HeLa cells expressing GFP which is N-terminally fused to nuclear localization and C-terminally fused to nuclear export signal of PKI assesed as reduction in GFP subcellular localization incubated for 3 hrs by nuclear export assay
Assay type: cell-based

Exportin-1, sequence (O14980 whole entry, the tested form may be a part): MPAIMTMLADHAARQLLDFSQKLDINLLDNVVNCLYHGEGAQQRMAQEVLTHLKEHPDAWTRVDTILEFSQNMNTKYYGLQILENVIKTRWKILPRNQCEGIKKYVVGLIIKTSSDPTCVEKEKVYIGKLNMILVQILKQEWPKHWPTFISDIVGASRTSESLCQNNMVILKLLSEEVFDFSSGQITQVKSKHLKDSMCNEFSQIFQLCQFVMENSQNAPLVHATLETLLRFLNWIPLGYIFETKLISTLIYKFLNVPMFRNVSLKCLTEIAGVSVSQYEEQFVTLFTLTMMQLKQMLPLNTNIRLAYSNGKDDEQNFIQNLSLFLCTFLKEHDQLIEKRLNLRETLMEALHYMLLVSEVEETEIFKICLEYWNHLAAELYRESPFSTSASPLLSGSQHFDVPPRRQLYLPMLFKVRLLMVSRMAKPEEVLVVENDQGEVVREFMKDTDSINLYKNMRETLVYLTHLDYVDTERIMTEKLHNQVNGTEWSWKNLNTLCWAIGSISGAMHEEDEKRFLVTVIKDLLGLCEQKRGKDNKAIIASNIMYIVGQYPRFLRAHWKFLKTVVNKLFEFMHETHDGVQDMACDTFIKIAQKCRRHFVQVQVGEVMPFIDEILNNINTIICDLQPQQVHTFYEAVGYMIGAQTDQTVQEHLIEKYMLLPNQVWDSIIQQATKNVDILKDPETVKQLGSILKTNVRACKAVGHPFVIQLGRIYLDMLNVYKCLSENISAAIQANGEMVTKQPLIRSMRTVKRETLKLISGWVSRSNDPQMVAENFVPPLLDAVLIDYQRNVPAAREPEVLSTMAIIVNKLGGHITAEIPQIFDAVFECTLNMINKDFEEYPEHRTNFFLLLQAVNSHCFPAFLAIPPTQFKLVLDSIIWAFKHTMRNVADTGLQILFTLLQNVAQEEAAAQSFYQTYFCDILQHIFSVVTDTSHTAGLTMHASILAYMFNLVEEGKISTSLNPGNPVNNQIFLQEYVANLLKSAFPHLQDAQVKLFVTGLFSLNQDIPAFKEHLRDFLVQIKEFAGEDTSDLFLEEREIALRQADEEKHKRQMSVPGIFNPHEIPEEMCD

EC50 [µM] | Structure (SMILES)
30 | C=C(Cn1nnc(-c2cccc(Cl)c2)n1)C(=O)OCC
30 | C=C(Cn1nnc(-c2cccc(C(F)(F)F)c2)n1)C(=O)OCC
